Several values for one entry are separate records, joined by “and”; a condition that tells them apart may be missing. Identical values can stand only once. Entries after “also recorded” stand apart in the source; their conditions may differ. Like-named read-outs stand apart in the source and are kept apart here.
Assays:
[1] = biological target: T1, ryanodine receptor (skeletal sarcoplasmic reticulum membrane vesicles) (Oryctolagus cuniculus, UniProt P11716); assay: biochemical; format: binding
T1 construct: skeletal sarcoplasmic reticulum membrane vesicles; from tissue; host or cells: skeletal muscle sarcoplasmic reticulum membrane vesicles

[2] = tested on: SR Ca^++ release channel/ryanodine receptor (cardiac and skeletal muscle vesicles); format: biochemical
[3] = biological target: T2, Sarcoplasmic Reticular Ca^++ -Release Channel (ryanodine receptor) (Oryctolagus cuniculus, UniProt P11716); assay: biochemical; format: binding; conditions: for relative binding affinity compared with ryanodine (in words): vs ryanodine
T2 construct: skeletal sarcoplasmic reticulum membrane vesicles; from tissue; host or cells: skeletal muscle sarcoplasmic reticulum membrane vesicles

[4] = biological target: SR Ca^2+ release channel (junctional SR vesicles from rabbit skeletal muscle) (Oryctolagus cuniculus, UniProt P11716); assay: biochemical; format: biochemical
Experimental: Briefly, junctional SR vesicles from rabbit skeletal muscle were passively loaded with. ^45 Ca^2+ in the presence and absence of the esters. Ca^2+ -efflux was then initiated by diluting the vesicles 100-fold into a low Ca^2+ -concentration. ^45 Ca^2+ remaining in the vesicles was determined after a 3 sec. efflux period by termination and filtration of the vesicles followed by liquid scintillation counting.

[5] = Table I, displacement of 6.7 nM [3H]ryanodine, mean ± standard deviation of replicates, read-out: IC50
[6] = Table I, mean ± standard deviation of replicates, read-out: KD
[7] = first embodiment, read-out: IC50

T2 sequence (P11716 whole entry): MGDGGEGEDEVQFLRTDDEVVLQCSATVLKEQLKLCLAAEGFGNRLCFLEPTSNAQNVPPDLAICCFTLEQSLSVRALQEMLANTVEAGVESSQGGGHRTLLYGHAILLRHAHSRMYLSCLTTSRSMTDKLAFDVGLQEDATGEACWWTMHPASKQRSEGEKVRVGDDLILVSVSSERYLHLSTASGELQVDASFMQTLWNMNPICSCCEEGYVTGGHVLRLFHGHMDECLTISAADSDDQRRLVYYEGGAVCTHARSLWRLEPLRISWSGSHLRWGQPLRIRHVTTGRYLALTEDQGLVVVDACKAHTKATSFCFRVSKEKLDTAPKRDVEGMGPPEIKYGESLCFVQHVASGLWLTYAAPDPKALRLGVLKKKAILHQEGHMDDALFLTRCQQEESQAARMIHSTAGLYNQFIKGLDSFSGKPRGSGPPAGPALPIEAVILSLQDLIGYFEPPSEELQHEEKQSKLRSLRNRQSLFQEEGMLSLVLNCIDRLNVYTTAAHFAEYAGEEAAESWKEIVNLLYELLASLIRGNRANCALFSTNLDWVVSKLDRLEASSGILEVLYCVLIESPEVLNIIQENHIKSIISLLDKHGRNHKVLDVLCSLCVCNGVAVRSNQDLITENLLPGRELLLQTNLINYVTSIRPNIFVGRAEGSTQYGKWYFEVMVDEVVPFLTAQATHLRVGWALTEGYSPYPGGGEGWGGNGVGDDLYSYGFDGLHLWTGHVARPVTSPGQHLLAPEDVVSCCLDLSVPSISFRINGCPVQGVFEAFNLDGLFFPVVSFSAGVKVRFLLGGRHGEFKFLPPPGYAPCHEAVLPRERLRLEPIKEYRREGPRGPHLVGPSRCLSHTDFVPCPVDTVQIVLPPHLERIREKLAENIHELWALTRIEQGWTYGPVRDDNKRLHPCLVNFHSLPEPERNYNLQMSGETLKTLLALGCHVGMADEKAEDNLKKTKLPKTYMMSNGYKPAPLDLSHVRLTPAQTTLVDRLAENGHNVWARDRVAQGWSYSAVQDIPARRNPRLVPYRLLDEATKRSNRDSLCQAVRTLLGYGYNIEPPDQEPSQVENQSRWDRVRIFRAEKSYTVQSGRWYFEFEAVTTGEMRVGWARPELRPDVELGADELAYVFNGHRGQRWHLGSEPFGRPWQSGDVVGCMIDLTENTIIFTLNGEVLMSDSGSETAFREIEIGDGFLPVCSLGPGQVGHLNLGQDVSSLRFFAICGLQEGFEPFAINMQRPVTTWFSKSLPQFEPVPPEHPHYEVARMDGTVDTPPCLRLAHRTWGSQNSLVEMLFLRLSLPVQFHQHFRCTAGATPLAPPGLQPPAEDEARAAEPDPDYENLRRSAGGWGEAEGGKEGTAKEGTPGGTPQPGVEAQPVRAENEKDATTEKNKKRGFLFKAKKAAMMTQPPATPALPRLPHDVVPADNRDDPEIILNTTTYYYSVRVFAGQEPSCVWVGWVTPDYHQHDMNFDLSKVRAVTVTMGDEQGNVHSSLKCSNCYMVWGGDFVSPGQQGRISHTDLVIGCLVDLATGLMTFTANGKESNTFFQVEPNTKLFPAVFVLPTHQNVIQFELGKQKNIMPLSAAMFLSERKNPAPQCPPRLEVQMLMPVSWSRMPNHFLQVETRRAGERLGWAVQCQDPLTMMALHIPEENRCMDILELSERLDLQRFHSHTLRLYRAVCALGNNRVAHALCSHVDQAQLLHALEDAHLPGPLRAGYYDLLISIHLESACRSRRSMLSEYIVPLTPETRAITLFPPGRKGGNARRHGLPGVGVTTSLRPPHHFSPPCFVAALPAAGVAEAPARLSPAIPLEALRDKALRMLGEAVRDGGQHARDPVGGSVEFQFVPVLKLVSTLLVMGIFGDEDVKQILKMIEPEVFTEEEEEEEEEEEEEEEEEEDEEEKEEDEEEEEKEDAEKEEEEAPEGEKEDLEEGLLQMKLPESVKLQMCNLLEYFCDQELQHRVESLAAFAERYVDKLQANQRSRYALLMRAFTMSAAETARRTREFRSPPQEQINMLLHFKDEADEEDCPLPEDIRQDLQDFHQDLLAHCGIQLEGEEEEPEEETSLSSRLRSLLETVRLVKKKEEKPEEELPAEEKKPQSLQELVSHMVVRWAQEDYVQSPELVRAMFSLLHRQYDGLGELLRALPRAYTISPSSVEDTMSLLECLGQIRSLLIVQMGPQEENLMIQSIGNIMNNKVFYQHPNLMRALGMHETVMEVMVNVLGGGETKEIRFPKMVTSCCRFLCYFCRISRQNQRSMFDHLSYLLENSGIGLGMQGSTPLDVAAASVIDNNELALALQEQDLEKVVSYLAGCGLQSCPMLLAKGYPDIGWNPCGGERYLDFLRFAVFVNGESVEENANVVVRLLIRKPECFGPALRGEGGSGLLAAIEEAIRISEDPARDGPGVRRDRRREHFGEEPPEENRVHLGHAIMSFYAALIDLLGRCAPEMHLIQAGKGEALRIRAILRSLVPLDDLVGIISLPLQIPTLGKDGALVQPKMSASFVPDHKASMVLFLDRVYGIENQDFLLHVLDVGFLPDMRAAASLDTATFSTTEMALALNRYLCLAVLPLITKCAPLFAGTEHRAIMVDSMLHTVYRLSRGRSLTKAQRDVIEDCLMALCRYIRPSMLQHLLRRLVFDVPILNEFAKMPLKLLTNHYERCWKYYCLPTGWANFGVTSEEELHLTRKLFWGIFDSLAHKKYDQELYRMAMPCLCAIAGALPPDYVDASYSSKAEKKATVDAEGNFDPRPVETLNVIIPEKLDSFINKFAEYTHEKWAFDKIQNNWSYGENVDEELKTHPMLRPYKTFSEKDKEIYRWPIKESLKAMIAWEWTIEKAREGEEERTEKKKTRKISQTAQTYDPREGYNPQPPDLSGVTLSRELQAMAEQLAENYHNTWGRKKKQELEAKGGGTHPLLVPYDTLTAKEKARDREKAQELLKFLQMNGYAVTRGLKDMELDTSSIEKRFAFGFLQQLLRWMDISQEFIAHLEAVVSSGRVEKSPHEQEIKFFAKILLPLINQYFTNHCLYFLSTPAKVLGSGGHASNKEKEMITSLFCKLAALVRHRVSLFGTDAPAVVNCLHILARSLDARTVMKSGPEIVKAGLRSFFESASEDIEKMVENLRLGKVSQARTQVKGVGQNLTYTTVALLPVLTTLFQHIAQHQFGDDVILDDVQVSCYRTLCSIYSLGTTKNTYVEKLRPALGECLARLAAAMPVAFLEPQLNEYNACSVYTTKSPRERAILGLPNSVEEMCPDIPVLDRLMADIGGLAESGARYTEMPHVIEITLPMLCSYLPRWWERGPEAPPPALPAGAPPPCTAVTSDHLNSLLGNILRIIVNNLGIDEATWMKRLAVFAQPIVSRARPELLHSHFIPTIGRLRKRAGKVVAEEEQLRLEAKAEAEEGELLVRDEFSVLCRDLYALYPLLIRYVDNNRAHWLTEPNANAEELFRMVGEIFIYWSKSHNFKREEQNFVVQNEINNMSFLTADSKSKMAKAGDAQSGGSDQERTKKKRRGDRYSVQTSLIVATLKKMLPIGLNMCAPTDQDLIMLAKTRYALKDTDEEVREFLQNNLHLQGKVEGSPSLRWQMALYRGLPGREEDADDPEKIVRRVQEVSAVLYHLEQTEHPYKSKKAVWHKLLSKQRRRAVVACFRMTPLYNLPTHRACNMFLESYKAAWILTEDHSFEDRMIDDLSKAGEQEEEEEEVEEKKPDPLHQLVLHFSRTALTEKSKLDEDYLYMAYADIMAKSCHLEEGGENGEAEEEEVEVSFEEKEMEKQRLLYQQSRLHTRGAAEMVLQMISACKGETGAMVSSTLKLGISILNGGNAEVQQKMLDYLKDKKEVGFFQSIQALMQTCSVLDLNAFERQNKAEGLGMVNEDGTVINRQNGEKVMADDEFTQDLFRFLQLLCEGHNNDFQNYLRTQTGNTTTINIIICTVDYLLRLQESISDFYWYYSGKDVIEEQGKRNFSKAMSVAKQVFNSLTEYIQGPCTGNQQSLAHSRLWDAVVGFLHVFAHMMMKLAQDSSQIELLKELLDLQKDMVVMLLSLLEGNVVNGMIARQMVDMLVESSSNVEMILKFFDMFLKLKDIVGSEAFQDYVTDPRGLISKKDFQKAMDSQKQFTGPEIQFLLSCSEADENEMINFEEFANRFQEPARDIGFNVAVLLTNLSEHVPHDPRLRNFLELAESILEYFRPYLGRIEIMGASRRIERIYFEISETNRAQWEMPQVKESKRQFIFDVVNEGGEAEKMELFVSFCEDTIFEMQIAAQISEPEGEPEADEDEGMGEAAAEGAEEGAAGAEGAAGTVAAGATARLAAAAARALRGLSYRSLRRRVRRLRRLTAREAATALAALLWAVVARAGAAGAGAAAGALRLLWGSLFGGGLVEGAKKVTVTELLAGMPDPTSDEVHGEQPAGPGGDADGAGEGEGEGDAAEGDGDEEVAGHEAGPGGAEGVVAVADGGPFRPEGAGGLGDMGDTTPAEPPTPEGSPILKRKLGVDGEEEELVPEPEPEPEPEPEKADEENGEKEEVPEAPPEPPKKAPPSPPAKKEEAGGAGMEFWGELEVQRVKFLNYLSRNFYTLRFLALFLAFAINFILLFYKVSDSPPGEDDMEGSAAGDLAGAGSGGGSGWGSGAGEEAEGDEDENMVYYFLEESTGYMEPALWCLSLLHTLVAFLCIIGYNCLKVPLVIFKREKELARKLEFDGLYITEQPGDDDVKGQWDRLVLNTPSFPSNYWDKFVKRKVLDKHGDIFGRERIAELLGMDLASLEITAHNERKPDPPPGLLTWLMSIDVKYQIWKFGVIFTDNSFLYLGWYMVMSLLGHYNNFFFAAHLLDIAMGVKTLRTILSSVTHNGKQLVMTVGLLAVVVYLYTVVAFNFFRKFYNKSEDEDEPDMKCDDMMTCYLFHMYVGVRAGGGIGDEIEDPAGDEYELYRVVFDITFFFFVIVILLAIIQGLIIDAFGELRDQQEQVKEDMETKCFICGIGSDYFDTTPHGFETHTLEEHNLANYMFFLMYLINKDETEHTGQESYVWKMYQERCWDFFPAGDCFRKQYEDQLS
T1 sequence (P11716 whole entry): as above
Sequence of SR Ca^2+ release channel (junctional SR vesicles from rabbit skeletal muscle) (P11716 whole entry): as above

Compound | IC50 [1, 5] [nM] | Kd [1, 6] [nM] | IC50 [1, 7] [nM] | Kd ([1]; first embodiment, read-out: KD) [nM] | further results
C=C1CCC2(O)C3(C)CC4(O)OC2(C1O)C1(O)C3(O)C(OC(=O)c2ccc[nH]2)C(O)(C(C)C)C41C (centres unmarked) [Dehydroryanodine, dehydroryanodine] |  |  |  |  | IC50 [1]: 16.1 ± 4.1 nM; Kd [1]: 5.4 ± 0.1 nM; closing of the SR Ca^++ release channel (in words) ([2]; I, NMDS: concentrations as high as 300 μM, ryanodine, dehydroryanodine: >μM): the channel is closed; opening of the SR Ca^++ release channel (in words) ([2]; ryanodine, dehydroryanodine: low concentrations (<μM)): opens the SR Ca^++ release channel/ryanodine receptor; also recorded: the Ca^++ release channel is opened
CC1CCC2(O)C3(C)CC4(O)OC2(C1OC(=O)CNC(=O)OCc1ccccc1)C1(O)C3(O)C(OC(=O)c2ccc[nH]2)C(O)(C(C)C)C41C (centres unmarked) [I, O10eq-[(N'Carbobenzyloxy)-Glycyl]-Ryanodine] | 22.3 ± 7.3 | 6.6 ± 2 |  |  | closing of the SR Ca^++ release channel (in words) [2]: neither XVII(NMDS) nor CBZ-glycyl-ryanodine (I) exhibits significant ability to close the channel; opening of the SR Ca^++ release channel (in words) [2]: only slightly less active than ryanodine for opening the channel; also recorded: same selective activity of only opening this channel, albeit at higher dose levels; potency and selectivity comparison (in words) ([2]; I vs XVIII (NMDS)): more potent and more selective than XVIII(NMDS); relative binding affinity compared with ryanodine (in words) [3]: slightly enhanced affinity
C=C1CCC2(O)C3(C)CC4(O)OC2(C1OC(=O)CCNC(=O)c1ccccc1)C1(O)C3(O)C(OC(=O)c2ccc[nH]2)C(O)(C(C)C)C41C (stereo not drawn) [II, O10eg -(N-Benzoyl-β-alanyl)-Dehydroryanodine] | 25.1 ± 8.2 | 8.2 ± 3.2 |  |  | 
C=C1CCC2(O)C3(C)CC4(O)OC2(C1OC(=O)CCNC(=O)C12CC5CC(CC(C5)C1)C2)C1(O)C3(O)C(OC(=O)c2ccc[nH]2)C(O)(C(C)C)C41C (stereo not drawn) [III, O10eq-[N-(1-Adamantanecarbonyl)-β-Alanyl]-Dehydroryanodine] | 72.8 ± 6.2 | 26.9 ± 3.6 |  |  | 
CC1CCC2(O)C3(C)CC4(O)OC2(C1OC(=O)CCNC(=O)OCc1ccccc1)C1(O)C3(O)C(OC(=O)c2ccc[nH]2)C(O)(C(C)C)C41C (stereo not drawn) [IV, O10eq. -Carbobenzyloxy-β-alanyl-ryanodine] | 12.3 ± 1 | 4 ± 0.2 |  |  | IC50 ([1]; restated for adjustment, read-out: IC50 value (Table I value as restated in text)): 12.3 nM; opening of the SR Ca^++ release channel (in words) [2]: same selective activity of only opening this channel, albeit at higher dose levels; IC50 ([3]; Table I value multiplied by 6.2/11.9=0.52, read-out: adjusted IC50 value): 6.4 nM; IC50 ([3]; second embodiment, read-out: IC50): 5.9 nM; relative binding affinity compared with ryanodine (in words) [3]: slightly enhanced affinity
CC1=C(C(C)C)C(OC(=O)c2ccc[nH]2)C2(O)C3(C)CC(=O)OC4(C(OC(=O)CCN)C(C)CCC34O)C12O (stereo not drawn) [V-I, O10eq -β-Alanyl-Anhydroryanodine] | 37 |  | 106 | 37 | binding affinity as fraction of that of Ryanodine ([1]; vs ryanodine): 1/10
CC1CCC2(O)C3(C)CC4(O)OC2(C1OC(=O)CCN)C1(O)C3(O)C(OC(=O)c2ccc[nH]2)C(O)(C(C)C)C41C (stereo not drawn) [V-II, O10eq -β-Alanyl-Ryanodine] |  | 1 ± 0.3 | 2.8 ± 0.8 | 1 | opening (activation) of the SR CRC (in words) [4]: induces full opening of the SR CRC; EC (maximal activation) ([4]; 3 s, 45Ca2+ efflux, skeletal SR vesicles, read-out: concentration of maximal channel activation): 10 µM; closing (deactivation) of the SR CRC (in words) ([4]; higher concentrations, up to 1 mM for V-II, XXI preliminary): none of the closing action seen with high concentrations of ryanodine; shift of activation curve relative to ryanodine ([4]; towards lower concentrations): three-fold; pharmacological profile (in words) ([4]; vs biphasic profile of ryanodine): altered--unidirectional--pharmacological profile, differing from the biphasic profile of ryanodine; binding affinity for the ryanodine receptor (in words) [1]: approximately four-fold higher affinity; IC50 ([1]; V-II from direct preparation by hydrogenolysis of IV in presence of triethylamine, read-out: IC50): 4.3 nM; binding affinity to the ryanodine receptor relative to ryanodine (times stronger/greater) ([1]; vs ryanodine): 3.5-4 times and 4 times; opening of the SR Ca^++ release channel (in words) [2]: exhibits only the ability to enhance Ca^++ flux by opening the SR Ca^++ channel; relative binding affinity compared with ryanodine (in words) [3]: two to three-fold greater RBA
CC1CCC2(O)C3(C)CC4(O)OC2(C1OC(=O)CCNC(=O)c1cc(N=[N+]=[N-])ccc1[N+](=O)[O-])C1(O)C3(O)C(OC(=O)c2ccc[nH]2)C(O)(C(C)C)C41C (stereo not drawn) [VI, O10eq-[N-(5-Azido-2-nitrobenzoyl)-β-Alanyl] Ryanodine] | 36.6 ± 2.8 | 12.5 ± 1 | 36.6 ± 2.8 | 12.5 ± 1 | binding affinity for the ryanodine receptor (in words) [1]: of a similar magnitude as that of ryanodine; Kd ([1]; VI prepared from V-II, read-out: KD (50)): 12.5 ± 1 nM; IC50 ([1]; VI prepared from V, read-out: IC50): 37.2 ± 9.7 nM; Kd ([1]; VI prepared from V, read-out: KD): 14 ± 3.6 nM
C=C1CCC2(O)C3(C)CC4(O)OC2(C1OC(=O)CCNC(=O)c1ccc(I)cc1)C1(O)C3(O)C(OC(=O)c2ccc[nH]2)C(O)(C(C)C)C41C (stereo not drawn) [XII, p-Iodobenzoyl-β-alanyl-dehydroryanodine] | 16 | 5.2 | 16 | 5.2 | binding affinity for the ryanodine receptor (in words) [1]: binds effectively to the ryanodine receptor
C=C1CCC2(O)C3(C)CC4(O)OC2(C1OC(=O)CCNC(=O)c1ccc(OCCCC)cc1)C1(O)C3(O)C(OC(=O)c2ccc[nH]2)C(O)(C(C)C)C41C (stereo not drawn) [XIII, O10eq-[N-(p-n-Butoxybenzoyl)-β-Alanyl]-Dehydroryanodine] | 28 ± 6.6 | 9.7 ± 2.5 | 20.2 | 6 | 
CC1CCC2(O)C3(C)CC4(O)OC2(C1OC(=O)CCNC(=O)CCCCC1SCC2NC(=O)NC21)C1(O)C3(O)C(OC(=O)c2ccc[nH]2)C(O)(C(C)C)C41C (stereo not drawn) [XIV, O10eq -N-Biotinlyl-β-Alanyl-Ryanodine] | 65.1 ± 5.5 | 24.9 ± 1.4 | 65.1 ± 3.5 | 24.9 ± 1.4 | 
